In data set [1] the test system is L6. The experiment in a line: Induction of glucose uptake in serum-starved rat L6 myotubes at 20 uM by luminescence based microplate reader analysis. It counts as functional, cell-based.
In data set [2] the target is T1, Phosphatidylinositol 3,4,5-trisphosphate 5-phosphatase 2 (Rattus norvegicus) (UniProt Q9WVR3).
T1 sequence (whole entry): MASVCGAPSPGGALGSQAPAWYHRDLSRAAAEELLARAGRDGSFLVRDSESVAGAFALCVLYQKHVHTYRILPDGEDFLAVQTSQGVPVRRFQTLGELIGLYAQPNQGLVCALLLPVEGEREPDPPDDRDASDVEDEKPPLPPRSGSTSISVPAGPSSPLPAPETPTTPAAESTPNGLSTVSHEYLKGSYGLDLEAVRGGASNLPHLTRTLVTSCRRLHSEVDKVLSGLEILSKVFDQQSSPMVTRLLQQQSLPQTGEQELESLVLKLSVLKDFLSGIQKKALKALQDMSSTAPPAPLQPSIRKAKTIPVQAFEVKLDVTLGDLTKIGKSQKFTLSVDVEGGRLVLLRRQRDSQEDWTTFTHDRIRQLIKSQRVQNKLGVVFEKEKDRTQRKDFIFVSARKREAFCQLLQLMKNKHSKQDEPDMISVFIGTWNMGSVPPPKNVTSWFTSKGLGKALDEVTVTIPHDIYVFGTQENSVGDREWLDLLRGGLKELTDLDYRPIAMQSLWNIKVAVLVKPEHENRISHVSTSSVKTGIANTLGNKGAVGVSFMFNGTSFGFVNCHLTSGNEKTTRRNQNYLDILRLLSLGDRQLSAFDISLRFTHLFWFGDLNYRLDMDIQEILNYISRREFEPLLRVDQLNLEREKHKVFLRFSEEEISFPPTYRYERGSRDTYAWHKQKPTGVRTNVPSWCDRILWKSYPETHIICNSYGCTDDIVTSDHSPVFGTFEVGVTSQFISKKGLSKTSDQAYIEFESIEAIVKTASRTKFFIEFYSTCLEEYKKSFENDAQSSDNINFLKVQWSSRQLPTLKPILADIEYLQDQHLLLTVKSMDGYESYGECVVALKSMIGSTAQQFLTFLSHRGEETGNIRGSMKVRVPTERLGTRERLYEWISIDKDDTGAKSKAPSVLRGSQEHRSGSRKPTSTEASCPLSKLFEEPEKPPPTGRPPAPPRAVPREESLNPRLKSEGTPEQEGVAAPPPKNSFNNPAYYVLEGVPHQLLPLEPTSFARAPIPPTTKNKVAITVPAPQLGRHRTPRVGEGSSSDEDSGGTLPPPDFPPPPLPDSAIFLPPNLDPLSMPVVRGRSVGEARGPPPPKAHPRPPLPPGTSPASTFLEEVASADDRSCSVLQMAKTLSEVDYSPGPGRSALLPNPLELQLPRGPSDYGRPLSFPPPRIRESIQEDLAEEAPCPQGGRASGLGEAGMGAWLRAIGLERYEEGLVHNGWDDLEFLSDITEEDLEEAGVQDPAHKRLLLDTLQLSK
The experiment in a line: Inhibition of SHIP2 in serum-starved rat L6 myotubes assessed as increase in phosphorylated Akt to total Akt level at 20 to 40 uM incubated for 24 hrs by ELISA. It counts as cell-based. As to conditions: dose 20-40 µM. (In general: ELISA stands for enzyme-linked immunosorbent assay.)

Data set [3] in a line: Thiol (sulfhydryl) reactivity of compound assessed as change in absorbance at 200 uM at pH 7.4 aqueous buffer measured upto 24 hrs in presence of DTT. The data set is classed as ADME. As to conditions: pH 7.4, 24 h.
A short description of data set [4]: Apparent permeability of the compound across apical to basolateral side in human Caco-2 cells at 30 uM incubated for 60 mins by LC analysis. The data set is classed as ADME, cell-based. (In general: Passage across Caco-2 layers is used to estimate intestinal permeability.)
Data set [5] relates to L6. The experiment in a line: Insulin sensitizing activity in rat L6 myotubes assessed as increase in glucose uptake by measuring fold change at 2 mM preincubated with compound for 18 hrs followed by insulin addition and measured after 15 mins by luminescence based microplate reader analysis. It counts as functional. As to conditions: time 18.25 hrs.
Data set [6] deals with L6. The experiment in a line: Induction of glucose uptake in serum-starved rat L6 myotubes at 2 mM by luminescence based microplate reader analysis. The data set is classed as functional, cell-based.
A short description of data set [7]: Thiol (sulfhydryl) reactivity of compound assessed as change in absorbance at 200 uM at pH 7.4 aqueous buffer measured at 1 to 24 hrs in presence of DTT. As to conditions: pH 7.4, 200 µM, time 1-24 hrs. It counts as ADME.

Structures can show the parent of a compound that is named as a salt. Activity calls are given as the source filed them. The calls are words filed in the database; no cut-off is given here.

Results on 5 compounds are retold here after ChEMBL document CHEMBL5532754, “Discovery of aurones bearing two amine functionalities as SHIP2 inhibitors with insulin-sensitizing effect in rat myotubes” (RSC Med Chem, 2024).

Consider `O=C1/C(=C/c2cn(CCN3CCOCC3)c3ccccc23)Oc2cc(OCCN3CCCCC3)ccc21`, for which, in data set [1], the result was inactive. Also, in data set [2], the inhibition entry was “Active”. Besides, the Activity entry in data set [3] is “Not Active”.

As to `O=C1/C(=C/c2cn(CCN3CCCCC3)c3ccccc23)Oc2cc(OCCN3CCCCC3)ccc21`, the result in data set [1] was inactive. The inhibition entry in data set [2] was “Active”. In data set [4], the Papp A→B (as a rule, how fast a substance crosses the layer from the apical side) at 1 h, 30 µM stood at 25.3 ×10⁻⁶ cm/s. For the same compound, the Activity entry in data set [3] is recorded as “Not Active”.

As for `CN(C)C(=N)NC(=N)N` [METFORMIN], the “fold change (FC)” value in data set [5] was 1.6. The result in data set [6] was inactive.

Turning to `CN(C)CCCn1cc(/C=C2\Oc3cc(OCCN4CCCCC4)ccc3C2=O)c2ccccc21`, the outcome in data set [1] was inactive. Further, the inhibition result in data set [2] is “Active”. Moreover, the Activity entry in data set [3] is reported as “Not Active”.

Regarding `COC(=O)/C=C/C(=O)OC` [DIMETHYL FUMARATE], the result in data set [7] was Active.
